# Test results published in patent US7138361B2, “Herbicidal heterocycles” (E. I. du Pont de Nemours and Company, priority 2000, dated 2006).
# Columns and labels:
# Type in all cases: in vivo
# [1] = test system: morning glory (Ipomoea hederacea); assay: Test B postemergence; settings: 13 to 15 days
# Outline: (§1)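 Greenhouse test: chemicals are formulated in a surfactant-containing non-phytotoxic solvent and applied either preemergence to planted seeds or postemergence to plants 2 to 18 cm tall. Response is rated visually versus controls after 13 to 15 days, 0 meaning no effect and 100 complete control.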
# [2] = test system: pigweed (Amaranthus retroflexus); assay: Test B postemergence; settings: 13 to 15 days
# Outline: as §1
# [3] = test system: velvetleaf (Abutilon theophrasti); assay: Test B postemergence; settings: 13 to 15 days
# Outline: as §1
# [4] = test system: wheat (Triticum aestivum); assay: Test B postemergence; settings: 13 to 15 days
# Outline: as §1
# [5] = test system: corn (Zea mays); assay: Test B postemergence; settings: 13 to 15 days
# Outline: as §1
# [6] = test system: lambsquarters (Chenopodium album); assay: Test B postemergence; settings: 13 to 15 days
# Outline: as §1
# [7] = test system: blackgrass (Alopecurus myosuroides); assay: Test B postemergence; settings: 13 to 15 days
# Outline: as §1
# [8] = test system: giant foxtail (Setaria faberii); assay: Test B postemergence; settings: 13 to 15 days
# Outline: as §1
# [9] = test system: crabgrass (Digitaria sanguinalis); assay: Test B postemergence; settings: 13 to 15 days
# Outline: as §1
# [10] = test system: barnyardgrass (Echinochloa crus-galli); assay: Test B postemergence; settings: 13 to 15 days
# Outline: as §1
# [11] = test system: cocklebur (Xanthium strumarium); assay: Test B postemergence; settings: 13 to 15 days
# Outline: as §1
# [12] = test system: Surinam grass (Brachiaria decumbens); assay: Test B postemergence; settings: 13 to 15 days
# Outline: as §1
# [13] = test system: wild oat (Avena fatua); assay: Test B postemergence; settings: 13 to 15 days
# Outline: as §1
# [14] = test system: Nightshade; assay: Test C preemergence; settings: visual evaluation after 12 to 14 days
# [15] = test system: morning glory (Ipomoea hederacea); assay: Test B preemergence
# Outline: as §1
# [16] = test system: pigweed (Amaranthus retroflexus); assay: Test B preemergence
# Outline: as §1
# [17] = test system: velvetleaf (Abutilon theophrasti); assay: Test B preemergence
# Outline: as §1
# [18] = test system: corn (Zea mays); assay: Test B preemergence
# Outline: as §1
# [19] = test system: lambsquarters (Chenopodium album); assay: Test B preemergence
# Outline: as §1
# [20] = test system: giant foxtail (Setaria faberii); assay: Test B preemergence
# Outline: as §1
# [21] = test system: crabgrass (Digitaria sanguinalis); assay: Test B preemergence
# Outline: as §1
# [22] = test system: barnyardgrass (Echinochloa crus-galli); assay: Test B preemergence
# Outline: as §1
# [23] = test system: rice (Oryza saliva); assay: Test B preemergence
# Outline: as §1
# [24] = test system: cocklebur (Xanthium strumarium); assay: Test B preemergence
# Outline: as §1
# [25] = test system: Surinam grass (Brachiaria decumbens); assay: Test B preemergence
# Outline: as §1
# [26] = test system: Sunflower; assay: Test C preemergence; settings: scale 0 to 100, 0 no effect, 100 complete control
# [27] = Rate 125 g/ha, scale 0 (no effect) to 100 (complete control)
# [28] = Rate 500 g/ha, scale 0 to 100, 0 is no effect, 100 is complete control
# [29] = Preemergence, Rate 500 g/ha, scale 0 to 100, 0 no effect, 100 complete control
# [30] = preemergence, Rate 125 g/ha, scale of 0 to 100 where 0 is no effect and 100 is complete control, 13 to 15 days
# [31] = preemergence, Rate 125 g/ha, scale 0 to 100, 0 no effect, 100 complete control
structure (smiles),measurement,setting,value
CC(C)(C)c1ccn(C2CCN(c3cccc(OC(F)F)c3)C2=O)n1 (centres unmarked) [Compound 76],"Plant response rating, Morningglory",[1]; [27],0
same,"Plant response rating, Morningglory",[1]; [28],20
same,"Plant response rating, Pigweed",[2]; [27],30
same,"Plant response rating, Pigweed",[2]; [28],80
same,"Plant response rating, Velvetleaf",[3]; [27],0
same,"Plant response rating, Velvetleaf",[3]; [28],0
same,"Plant response rating, Wheat",[4]; [27],0
same,"Plant response rating, Wheat",[4]; [28],0
same,"Plant response rating, Corn",[5]; [27],0
same,"Plant response rating, Corn",[5]; [28],0
same,"Plant response rating, Lambsquarters",[6]; [27],0
same,"Plant response rating, Lambsquarters",[6]; [28],40
same,"Plant response rating, Blackgrass",[7]; [27],0
same,"Plant response rating, Blackgrass",[7]; [28],0
same,"Plant response rating, Foxtail, Giant",[8]; [27],0
same,"Plant response rating, Foxtail, Giant",[8]; [28],30
same,"Plant response rating, Crabgrass",[9]; [27],0
same,"Plant response rating, Crabgrass",[9]; [28],40
same,"Plant response rating, Barnyardgrass",[10]; [27],0
same,"Plant response rating, Barnyardgrass",[10]; [28],90
same,"Plant response rating, Cocklebur",[11]; [27],0
same,"Plant response rating, Cocklebur",[11]; [28],20
same,"Plant response rating, Surinam grass",[12]; [27],0
same,"Plant response rating, Surinam grass",[12]; [28],10
same,"Plant response rating, Wild Oat",[13]; [27],0
same,"Plant response rating, Wild Oat",[13]; [28],0
same,"Plant response rating (0 to 100), Nightshade",[14]; Rate 500 g/ha,60
same,"Plant response rating, Morningglory",[15]; [29],100
same,"Plant response rating, Morningglory",[15]; [30],0
same,"Plant response rating, Pigweed",[16]; [29],100
same,"Plant response rating, Pigweed",[16]; [30],100
same,"Plant response rating, Velvetleaf",[17]; [29],0
same,"Plant response rating, Velvetleaf",[17]; [30],0
same,"Plant response rating, Corn",[18]; [29],70
same,"Plant response rating, Corn",[18]; [30],0
same,"Plant response rating, Lambsquarters",[19]; [29],100
same,"Plant response rating, Lambsquarters",[19]; [30],100
same,"Plant response rating, Foxtail, Giant",[20]; [29],100
same,"Plant response rating, Foxtail, Giant",[20]; [30],100
same,"Plant response rating, Crabgrass",[21]; [29],100
same,"Plant response rating, Crabgrass",[21]; [30],100
same,"Plant response rating, Barnyardgrass",[22]; [29],100
same,"Plant response rating, Barnyardgrass",[22]; [30],100
same,"Plant response rating, Rice",[23]; [29],90
same,"Plant response rating, Rice",[23]; [30],70
same,"Plant response rating, Cocklebur",[24]; [29],0
same,"Plant response rating, Cocklebur",[24]; [30],0
same,"Plant response rating, Surinam grass",[25]; [29],100
same,"Plant response rating, Surinam grass",[25]; [30],80
same,"Plant response rating, Sunflower",[26]; Rate 250 g/ha,30
CCC(C)c1ccn(C2SCN(c3cccc(OC(F)(F)F)c3)C2=O)n1 (centres unmarked) [Compound 32],"Plant response rating, Morningglory",[1]; [27],20
same,"Plant response rating, Morningglory",[1]; [28],20
same,"Plant response rating, Pigweed",[2]; [27],40
same,"Plant response rating, Pigweed",[2]; [28],60
same,"Plant response rating, Velvetleaf",[3]; [27],0
same,"Plant response rating, Velvetleaf",[3]; [28],0
same,"Plant response rating, Wheat",[4]; [27],0
same,"Plant response rating, Wheat",[4]; [28],0
same,"Plant response rating, Corn",[5]; [27],0
same,"Plant response rating, Corn",[5]; [28],0
same,"Plant response rating, Lambsquarters",[6]; [27],80
same,"Plant response rating, Lambsquarters",[6]; [28],90
same,"Plant response rating, Blackgrass",[7]; [27],0
same,"Plant response rating, Blackgrass",[7]; [28],0
same,"Plant response rating, Foxtail, Giant",[8]; [27],0
same,"Plant response rating, Foxtail, Giant",[8]; [28],60
same,"Plant response rating, Crabgrass",[9]; [27],80
same,"Plant response rating, Crabgrass",[9]; [28],100
same,"Plant response rating, Barnyardgrass",[10]; [27],80
same,"Plant response rating, Barnyardgrass",[10]; [28],90
same,"Plant response rating, Cocklebur",[11]; [27],60
same,"Plant response rating, Cocklebur",[11]; [28],60
same,"Plant response rating, Surinam grass",[12]; [27],0
same,"Plant response rating, Surinam grass",[12]; [28],10
same,"Plant response rating, Wild Oat",[13]; [27],0
same,"Plant response rating, Wild Oat",[13]; [28],0
same,"Plant response rating (0 to 100), Nightshade",[14]; Rate 250 g/ha,90
same,"Plant response rating, Morningglory",[15]; [29],0
same,"Plant response rating, Pigweed",[16]; [29],100
same,"Plant response rating, Velvetleaf",[17]; [29],0
same,"Plant response rating, Corn",[18]; [29],0
same,"Plant response rating, Corn",[18]; [31],0
same,"Plant response rating, Lambsquarters",[19]; [29],100
same,"Plant response rating, Lambsquarters",[19]; [31],100
same,"Plant response rating, Foxtail, Giant",[20]; [29],100
same,"Plant response rating, Foxtail, Giant",[20]; [31],70
same,"Plant response rating, Crabgrass",[21]; [29],100
same,"Plant response rating, Crabgrass",[21]; [31],60
same,"Plant response rating, Barnyardgrass",[22]; [29],100
same,"Plant response rating, Barnyardgrass",[22]; [31],80
same,"Plant response rating, Rice",[23]; [29],0
same,"Plant response rating, Cocklebur",[24]; [29],0
same,"Plant response rating, Surinam grass",[25]; [29],60
same,"Plant response rating, Surinam grass",[25]; [31],40
same,"Plant response rating, Sunflower",[26]; Rate 125 g/ha,0
COc1cc(OC)cc(N2CCC(n3ccc(C(C)(C)C)n3)C2=O)c1 (centres unmarked) [Compound 71],"Plant response rating, Morningglory",[1]; [27],20
same,"Plant response rating, Morningglory",[1]; [28],20
same,"Plant response rating, Pigweed",[2]; [27],30
same,"Plant response rating, Pigweed",[2]; [28],60
same,"Plant response rating, Velvetleaf",[3]; [27],0
same,"Plant response rating, Velvetleaf",[3]; [28],20
same,"Plant response rating, Wheat",[4]; [27],0
same,"Plant response rating, Wheat",[4]; [28],0
same,"Plant response rating, Corn",[5]; [27],0
same,"Plant response rating, Corn",[5]; [28],0
same,"Plant response rating, Lambsquarters",[6]; [27],0
same,"Plant response rating, Lambsquarters",[6]; [28],50
same,"Plant response rating, Blackgrass",[7]; [27],0
same,"Plant response rating, Blackgrass",[7]; [28],0
same,"Plant response rating, Foxtail, Giant",[8]; [27],0
same,"Plant response rating, Foxtail, Giant",[8]; [28],20
same,"Plant response rating, Crabgrass",[9]; [27],0
same,"Plant response rating, Crabgrass",[9]; [28],30
same,"Plant response rating, Barnyardgrass",[10]; [27],0
same,"Plant response rating, Barnyardgrass",[10]; [28],0
same,"Plant response rating, Cocklebur",[11]; [27],0
same,"Plant response rating, Cocklebur",[11]; [28],20
same,"Plant response rating, Surinam grass",[12]; [27],0
same,"Plant response rating, Surinam grass",[12]; [28],30
same,"Plant response rating, Wild Oat",[13]; [27],0
same,"Plant response rating, Wild Oat",[13]; [28],0
same,"Plant response rating (0 to 100), Nightshade",[14]; Rate 500 g/ha,30
same,"Plant response rating, Morningglory",[15]; [29],0
same,"Plant response rating, Morningglory",[15]; [30],0
same,"Plant response rating, Pigweed",[16]; [29],100
same,"Plant response rating, Pigweed",[16]; [30],100
same,"Plant response rating, Velvetleaf",[17]; [29],30
same,"Plant response rating, Velvetleaf",[17]; [30],0
same,"Plant response rating, Corn",[18]; [29],20
same,"Plant response rating, Corn",[18]; [30],0
same,"Plant response rating, Lambsquarters",[19]; [29],100
same,"Plant response rating, Lambsquarters",[19]; [30],100
same,"Plant response rating, Foxtail, Giant",[20]; [29],100
same,"Plant response rating, Foxtail, Giant",[20]; [30],90
same,"Plant response rating, Crabgrass",[21]; [29],100
same,"Plant response rating, Crabgrass",[21]; [30],50
same,"Plant response rating, Barnyardgrass",[22]; [29],90
same,"Plant response rating, Barnyardgrass",[22]; [30],10
same,"Plant response rating, Rice",[23]; [29],40
same,"Plant response rating, Rice",[23]; [30],20
same,"Plant response rating, Cocklebur",[24]; [29],0
same,"Plant response rating, Cocklebur",[24]; [30],0
same,"Plant response rating, Surinam grass",[25]; [29],40
same,"Plant response rating, Surinam grass",[25]; [30],40
same,"Plant response rating, Sunflower",[26]; Rate 125 g/ha,0
same,"Plant response rating, Sunflower",[26]; Rate 250 g/ha,0
